Data from PubChem BioAssay (NCI).
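All cell lines were grown in 96-well plates and treated with compound for 48 hours. Here, GI50 denotes the concentration required for 50% inhibition of growth. TGI: concentration producing complete growth inhibition.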

Assays:
Test in all cases: NCI-60 cell line screen, 48 h
[1] = system: TK-10 renal
[2] = system: SNB-75 CNS
[3] = system: IGROV1 ovarian
[4] = system: SK-MEL-2 melanoma
[5] = system: SN12C renal
[6] = system: SK-OV-3 ovarian
[7] = system: RXF 393 renal
[8] = system: A498 renal
[9] = system: M14 melanoma
[10] = system: UACC-62 melanoma

In the case of Cc1cccc2c(N=Nc3ccccc3[N+](=O)[O-])c(O)[nH]c12, the TGI [1] is reported as 16.9 µM, the TGI [2] is reported as 31.9 µM and the TGI [3] is reported as > 50.5 µM. For the same molecule, the TGI [4] was > 71.1 µM, the TGI [5] was 26.8 µM and the TGI [6] was 21.8 µM. The TGI [7] was 16.6 µM, the TGI [8] was > 38.3 µM and the TGI [9] was > 100 µM. For the same molecule, the TGI [10] was 73.7 µM.
In the case of Cc1ccc(S(=O)(=O)NNC(C[N+](=O)[O-])c2ccccc2)cc1 (centres undefined), the TGI [1] is reported as 58.8 µM, the TGI [2] is reported as 41 µM and the TGI [3] is reported as 26.7 µM. The TGI [4] was 75 µM, the TGI [5] was > 100 µM and the TGI [6] was 46.3 µM. For the same molecule, the TGI [7] was 11.2 µM, the TGI [8] was 30.8 µM and the TGI [9] was > 100 µM. For the same molecule, the TGI [10] was 85.3 µM.
For CN(C)CCCN1c2ccc(O)cc2Sc2ccc(Cl)cc21, the TGI [1] was 24.9 µM, the TGI [2] was 21 µM and the TGI [3] was 22 µM. For the same molecule, the TGI [4] was 19 µM, the TGI [5] was 23.1 µM and the TGI [6] was 32.1 µM. The TGI [7] was 32.6 µM, the TGI [8] was 31.6 µM and the TGI [9] was 19.7 µM. The TGI [10] was 21.8 µM.
CCCC(CCC)Oc1ccc(CCCC2=C(O)c3ccccc3C(=O)C2=O)cc1 gave a GI50 [1] of 8.03 µM, a TGI [1] of 21.3 µM and a GI50 [2] of 11.3 µM. For the same molecule, the TGI [2] was 26.3 µM, the GI50 [3] was 4.93 µM and the TGI [3] was 18.5 µM. For the same molecule, the GI50 [4] was 6.85 µM, the TGI [4] was 28 µM and the GI50 [5] was 6.79 µM. It also gave a TGI [5] of 22.5 µM, a GI50 [6] of 12.6 µM and a TGI [6] of 28.3 µM. It also gave a GI50 [7] of 5.75 µM, a TGI [7] of 21.5 µM and a GI50 [8] of 7.21 µM. For the same molecule, the TGI [8] was 20.1 µM, the GI50 [9] was 9.35 µM and the TGI [9] was 22.2 µM. For the same molecule, the GI50 [10] was 3.16 µM and the TGI [10] was 17 µM.
O=C1[C@@H]2C(c3ccncc3)=NO[C@@H]2C(=O)N1c1ccc(Cc2ccc(N3C(=O)[C@H]4C(c5ccncc5)=NO[C@H]4C3=O)cc2)cc1 was tested, and the TGI [1] was > 100 µM, the TGI [2] was > 100 µM and the TGI [3] was > 100 µM. The TGI [4] was > 100 µM, the TGI [5] was > 100 µM and the TGI [6] was > 100 µM. For the same molecule, the TGI [7] was > 100 µM, the TGI [8] was > 100 µM and the TGI [9] was > 100 µM. The TGI [10] was > 100 µM.
With OCc1ncc(-c2ccccc2)s1 the GI50 [1] was > 100 µM, the TGI [1] was > 100 µM and the GI50 [2] was > 100 µM. The TGI [2] was > 100 µM, the GI50 [3] was > 100 µM and the TGI [3] was > 100 µM. The GI50 [4] was > 100 µM, the TGI [4] was > 100 µM and the GI50 [5] was > 100 µM. For the same molecule, the TGI [5] was > 100 µM, the GI50 [6] was > 100 µM and the TGI [6] was > 100 µM. For the same molecule, the GI50 [7] was > 100 µM, the TGI [7] was > 100 µM and the GI50 [8] was > 100 µM. For the same molecule, the TGI [8] was > 100 µM, the GI50 [9] was > 100 µM and the TGI [9] was > 100 µM. For the same molecule, the GI50 [10] was > 100 µM and the TGI [10] was > 100 µM.
In the case of Cc1[nH]c(=O)nc(N/N=C/c2ccc(Cl)cc2)c1C(=O)Nc1ccc(Cl)cc1, the TGI [1] is reported as 56.9 µM, the TGI [2] is reported as 14.6 µM and the TGI [3] is reported as > 100 µM. The TGI [4] was > 100 µM, the TGI [5] was > 100 µM and the TGI [6] was 57.9 µM. The TGI [7] was 32.9 µM, the TGI [8] was 57.2 µM and the TGI [9] was 40.3 µM. The TGI [10] was > 100 µM.
With CCOc1ccc(NC(=O)c2cc3ccccc3cc2O)cc1 the GI50 [1] was 74.8 µM, the TGI [1] was > 100 µM and the GI50 [2] was 34.9 µM. The TGI [2] was > 100 µM, the GI50 [3] was 74 µM and the TGI [3] was > 100 µM. For the same molecule, the GI50 [4] was 76.7 µM, the TGI [4] was > 100 µM and the GI50 [5] was > 100 µM. For the same molecule, the TGI [5] was > 100 µM, the GI50 [6] was 27.8 µM and the TGI [6] was > 100 µM. The GI50 [7] was 19 µM, the TGI [7] was 40.2 µM and the GI50 [8] was 86.4 µM. The TGI [8] was > 100 µM, the GI50 [9] was 93.4 µM and the TGI [9] was > 100 µM. The GI50 [10] was 57.4 µM and the TGI [10] was > 100 µM.
For O=C(NCCNC(=O)c1ccc(F)cc1)Nc1ccc(-n2cc(-c3ccncc3)c(-c3ccc(Cl)c(O)c3)n2)cc1, the GI50 [1] was 2.49 µM, the GI50 [2] was 3.05 µM and the TGI [2] was > 100 µM. For the same molecule, the GI50 [3] was 0.659 µM, the TGI [3] was > 100 µM and the GI50 [4] was 0.738 µM. For the same molecule, the TGI [4] was 4 µM, the GI50 [5] was 0.509 µM and the TGI [5] was > 100 µM. It also gave a GI50 [6] of 0.746 µM, a TGI [6] of 48.5 µM and a GI50 [7] of 0.288 µM. It also gave a TGI [7] of 3.69 µM, a GI50 [8] of 0.336 µM and a TGI [8] of 2.83 µM. It also gave a GI50 [9] of 0.288 µM, a TGI [9] of 1.25 µM and a GI50 [10] of 0.555 µM. The TGI [10] was 2.32 µM.
O=C1c2ccccc2C(=O)c2sc(Nc3ccc(Cl)cc3)nc21 showed a TGI [1] of 14.6 µM, a TGI [2] of 12.7 µM and a TGI [3] of 6.9 µM. The TGI [4] was 8.94 µM, the TGI [5] was 3.56 µM and the TGI [6] was 30.4 µM. For the same molecule, the TGI [7] was 3.65 µM, the TGI [8] was 29.7 µM and the TGI [9] was 3.96 µM. The TGI [10] was 4.05 µM.
With Cc1ccccc1NC(=O)C(=O)CC(=O)C1CCOC1=O (centres undefined) the TGI [1] was > 100 µM, the TGI [2] was > 100 µM and the TGI [3] was > 100 µM. For the same molecule, the TGI [4] was > 100 µM, the TGI [5] was > 100 µM and the TGI [6] was > 100 µM. For the same molecule, the TGI [7] was > 100 µM, the TGI [8] was > 100 µM and the TGI [9] was > 100 µM. For the same molecule, the TGI [10] was > 100 µM.
NC(=S)N/N=C/c1ccc(OC(=O)COc2ccccc2)cn1 was tested, and the GI50 [1] was > 100 µM, the TGI [1] was > 100 µM and the GI50 [2] was 10.4 µM. For the same molecule, the TGI [2] was > 100 µM, the GI50 [3] was 9.39 µM and the TGI [3] was > 100 µM. For the same molecule, the GI50 [4] was > 100 µM, the TGI [4] was > 100 µM and the GI50 [5] was 5.3 µM. For the same molecule, the TGI [5] was > 100 µM, the GI50 [6] was 40.9 µM and the TGI [6] was > 100 µM. For the same molecule, the GI50 [7] was 5.34 µM, the TGI [7] was > 100 µM and the GI50 [8] was 14.8 µM. The TGI [8] was 81 µM, the GI50 [9] was 3.57 µM and the TGI [9] was 12.1 µM. For the same molecule, the GI50 [10] was 4.67 µM and the TGI [10] was > 100 µM.
In the case of CC(C)c1ccc(/C=N/N=C(N)N)cc1, the GI50 [1] is reported as 12.9 µM, the TGI [1] is reported as 26.4 µM and the GI50 [2] is reported as 5.68 µM. It also gave a TGI [2] of 26 µM, a GI50 [3] of 11 µM and a TGI [3] of 25.8 µM. It also gave a GI50 [4] of 2.64 µM, a TGI [4] of 5.61 µM and a GI50 [5] of 6.35 µM. For the same molecule, the TGI [5] was 20.4 µM, the GI50 [6] was 3.24 µM and the TGI [6] was 13 µM. The GI50 [7] was 3.8 µM, the TGI [7] was 16.6 µM and the GI50 [8] was 11.3 µM. The TGI [8] was 23.8 µM, the GI50 [9] was 2.02 µM and the TGI [9] was 4.2 µM. The GI50 [10] was 7.73 µM and the TGI [10] was 21.3 µM.
C[n+]1cc2cc3c(cc2c2ccccc21)OCO3 gave a GI50 [1] of 8.33 µM, a TGI [1] of 61.4 µM and a GI50 [2] of 2.22 µM. The TGI [2] was 9.6 µM, the GI50 [3] was 0.982 µM and the TGI [3] was 58 µM. For the same molecule, the GI50 [4] was 3.51 µM, the TGI [4] was 11.3 µM and the GI50 [5] was 2.31 µM. The TGI [5] was 11.1 µM, the GI50 [6] was 7.96 µM and the TGI [6] was > 100 µM. For the same molecule, the GI50 [7] was 16.4 µM, the TGI [7] was > 100 µM and the GI50 [8] was 1.05 µM. For the same molecule, the TGI [8] was 8.57 µM, the GI50 [9] was 16 µM and the TGI [9] was > 100 µM. The GI50 [10] was 3.97 µM and the TGI [10] was 16.4 µM.
COc1ccc(Nc2ncc(-c3ccccc3)o2)cc1OC was tested, and the GI50 [1] was 6.07 µM, the TGI [1] was > 25 µM and the GI50 [2] was 5.09 µM. For the same molecule, the TGI [2] was > 25 µM, the GI50 [3] was > 17.1 µM and the TGI [3] was > 25 µM. The GI50 [4] was 18.4 µM, the TGI [4] was > 25 µM and the GI50 [5] was > 21.6 µM. The TGI [5] was > 25 µM, the GI50 [6] was 12.7 µM and the TGI [6] was > 25 µM. The GI50 [7] was 6.03 µM, the TGI [7] was > 19.5 µM and the GI50 [8] was 7.77 µM. The TGI [8] was > 25 µM, the GI50 [9] was > 22.9 µM and the TGI [9] was > 25 µM. The GI50 [10] was > 22.3 µM and the TGI [10] was > 25 µM.
CC(=O)[O][Hg][CH2]C1(C)COC(C)([CH2][Hg][O]C(C)=O)CO1 (centres undefined) was tested, and the GI50 [1] was 2.29 µM, the TGI [1] was 6.2 µM and the GI50 [2] was 17.7 µM. It also gave a TGI [2] of 34 µM, a GI50 [3] of 2.35 µM and a TGI [3] of 7.12 µM. For the same molecule, the GI50 [4] was 4.31 µM, the TGI [4] was 16.4 µM and the GI50 [5] was 0.887 µM. For the same molecule, the TGI [5] was 4.49 µM, the GI50 [6] was 17.5 µM and the TGI [6] was 31.8 µM. The GI50 [7] was 1.45 µM, the TGI [7] was 7.08 µM and the GI50 [8] was 19.4 µM. The TGI [8] was 34.8 µM, the GI50 [9] was 13.6 µM and the TGI [9] was 27.4 µM. The GI50 [10] was 4.94 µM and the TGI [10] was 9.26 µM.
